According to ChEMBL document CHEMBL1139947, “Bridged androstenediol analogs as ER-beta selective SERMs” (Bioorg Med Chem Lett, 2007):

Legend:
[1] = target: T1, Estrogen receptor (Homo sapiens, UniProt P03372)
T1 sequence (P03372 whole entry): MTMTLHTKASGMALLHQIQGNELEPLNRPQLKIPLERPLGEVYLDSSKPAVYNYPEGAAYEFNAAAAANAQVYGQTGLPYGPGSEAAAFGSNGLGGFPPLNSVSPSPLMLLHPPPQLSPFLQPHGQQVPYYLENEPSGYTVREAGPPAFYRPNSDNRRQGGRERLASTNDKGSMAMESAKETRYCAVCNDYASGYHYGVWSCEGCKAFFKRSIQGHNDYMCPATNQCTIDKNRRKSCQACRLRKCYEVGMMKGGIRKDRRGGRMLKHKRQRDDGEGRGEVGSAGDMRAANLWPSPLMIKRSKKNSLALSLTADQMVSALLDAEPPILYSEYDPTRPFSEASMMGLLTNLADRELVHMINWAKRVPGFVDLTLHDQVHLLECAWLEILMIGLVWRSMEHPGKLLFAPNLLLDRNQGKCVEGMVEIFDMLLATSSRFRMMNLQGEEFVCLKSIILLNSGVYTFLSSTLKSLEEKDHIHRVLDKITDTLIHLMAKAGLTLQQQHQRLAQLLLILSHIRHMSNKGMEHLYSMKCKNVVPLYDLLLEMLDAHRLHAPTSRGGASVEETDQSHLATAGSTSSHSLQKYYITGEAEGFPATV
Description: Binding affinity to human recombinant ERalpha by scintillation proximity assay

[2] = target: T2, Estrogen receptor beta (Homo sapiens, UniProt Q92731)
Description: Binding affinity to human recombinant ERbeta by scintillation proximity assay

[3] = target: T1, Estrogen receptor; remark: listed apart in the source
Description: Agonist activity at human recombinant ERalpha expressed in HEK293 cells by transactivation assay

[4] = target: T2, Estrogen receptor beta; remark: listed apart in the source
Description: Agonist activity at human recombinant ERbeta expressed in HEK293 cells by transactivation assay

[5] = target: T3, Androgen receptor (Homo sapiens, UniProt P10275)
T3 sequence (P10275 whole entry): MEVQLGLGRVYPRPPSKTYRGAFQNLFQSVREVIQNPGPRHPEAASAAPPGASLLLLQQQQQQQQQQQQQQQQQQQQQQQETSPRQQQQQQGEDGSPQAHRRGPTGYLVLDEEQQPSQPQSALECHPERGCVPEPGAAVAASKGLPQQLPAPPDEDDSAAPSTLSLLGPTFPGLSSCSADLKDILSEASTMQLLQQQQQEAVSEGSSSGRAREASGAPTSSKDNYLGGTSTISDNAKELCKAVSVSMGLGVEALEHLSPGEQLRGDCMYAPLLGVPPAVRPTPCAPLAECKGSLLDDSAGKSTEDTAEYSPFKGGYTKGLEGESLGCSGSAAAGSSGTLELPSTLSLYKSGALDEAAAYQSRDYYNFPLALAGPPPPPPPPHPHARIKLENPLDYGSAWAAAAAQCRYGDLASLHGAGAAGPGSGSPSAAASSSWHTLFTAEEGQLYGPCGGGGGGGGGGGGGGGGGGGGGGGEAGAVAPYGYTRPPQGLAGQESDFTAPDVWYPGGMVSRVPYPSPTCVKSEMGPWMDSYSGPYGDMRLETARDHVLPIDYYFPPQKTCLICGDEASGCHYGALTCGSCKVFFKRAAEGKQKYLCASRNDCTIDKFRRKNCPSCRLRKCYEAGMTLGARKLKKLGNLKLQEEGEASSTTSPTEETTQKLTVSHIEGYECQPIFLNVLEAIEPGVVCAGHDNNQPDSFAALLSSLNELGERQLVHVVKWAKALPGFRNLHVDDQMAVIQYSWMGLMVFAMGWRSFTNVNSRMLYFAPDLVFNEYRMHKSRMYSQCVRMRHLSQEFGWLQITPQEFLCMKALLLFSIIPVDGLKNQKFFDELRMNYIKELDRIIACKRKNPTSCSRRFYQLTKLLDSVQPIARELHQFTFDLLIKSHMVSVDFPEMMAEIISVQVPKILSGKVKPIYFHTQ
Description: Binding affinity to androgen receptor

T2 sequence (Q92731 whole entry): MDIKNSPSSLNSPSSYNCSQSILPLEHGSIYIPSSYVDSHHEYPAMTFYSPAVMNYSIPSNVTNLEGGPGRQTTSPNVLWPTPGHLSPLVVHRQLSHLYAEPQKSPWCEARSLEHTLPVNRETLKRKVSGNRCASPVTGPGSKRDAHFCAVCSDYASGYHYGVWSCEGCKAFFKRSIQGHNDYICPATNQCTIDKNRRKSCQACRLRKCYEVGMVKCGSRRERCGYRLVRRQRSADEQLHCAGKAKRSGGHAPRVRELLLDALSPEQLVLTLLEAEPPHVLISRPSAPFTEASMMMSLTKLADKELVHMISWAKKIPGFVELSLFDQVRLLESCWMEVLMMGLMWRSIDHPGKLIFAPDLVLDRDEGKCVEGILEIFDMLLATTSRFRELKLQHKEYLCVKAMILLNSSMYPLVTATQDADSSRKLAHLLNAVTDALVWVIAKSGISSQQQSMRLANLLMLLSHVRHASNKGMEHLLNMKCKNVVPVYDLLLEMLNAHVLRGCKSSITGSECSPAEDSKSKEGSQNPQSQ

In the case of `C/C=C\[C@]12CC[C@H](O)CC1=CC[C@H]1[C@@H]3CC[C@H](O)[C@@]3(C)CC[C@@H]12`, the IC50 [1] is reported as 1960 nM, the IC50 [2] is reported as 16 nM and the EC50 [3] is reported as 344 nM. It also gave an EC50 [4] of 21 nM and an IC50 [5] of 718 nM.
`C[C@]12CC[C@H]3[C@@H](CC=C4[C@H]5CC[C@]43CCC5=O)[C@@H]1CC[C@@H]2O` was tested, and the IC50 [1] was > 10000 nM, the IC50 [2] was 1460 nM and the EC50 [3] was 407 nM. The EC50 [4] was 86 nM.
With `C=C[C@]12CC[C@H](O)CC1=CC[C@H]1[C@@H]3CC[C@H](O)[C@@]3(C)CC[C@@H]12` the IC50 [1] was 2240 nM, the EC50 [3] was 980 nM and the EC50 [4] was 4 nM.
With `C[C@]12CC[C@H]3[C@@H](CC=C4[C@@H]5C(=O)CC[C@@]43C[C@H]5O)[C@@H]1CC[C@@H]2O` the IC50 [1] was > 10000 nM, the IC50 [2] was > 10000 nM and the EC50 [3] was > 1000 nM. The EC50 [4] was > 1000 nM and the IC50 [5] was > 1000 nM.
For `C[C@]12CC[C@H]3[C@@H](CC=C4C[C@@H]5CC[C@@]43CC(=O)O5)[C@@H]1CC[C@@H]2O`, the IC50 [1] was > 10000 nM, the IC50 [2] was > 10000 nM and the EC50 [3] was > 1000 nM. The EC50 [4] was > 1000 nM and the IC50 [5] was > 1000 nM.
Work on `CC[C@]12CC[C@H](O)CC1=CC[C@@H]1[C@@H]2CC[C@]2(C)[C@@H](O)CC[C@@H]12` yielded an IC50 [1] of 2330 nM, an IC50 [2] of 16 nM and an IC50 [5] of 88 nM.
Work on `C[C@]12CC[C@H]3[C@@H](CC=C4[C@H]5CC[C@]43CC[C@@H]5O)[C@@H]1CC[C@@H]2O` yielded an IC50 [1] of 317 nM, an IC50 [2] of 50 nM and an EC50 [3] of 44 nM. It also gave an EC50 [4] of 28 nM and an IC50 [5] of 1380 nM.
With `C[C@]12CC[C@H]3[C@@H](CC=C4C[C@@H]5CC[C@@]43CCO5)[C@@H]1CC[C@@H]2O` the IC50 [1] was > 10000 nM, the IC50 [2] was > 10000 nM and the EC50 [3] was > 1000 nM. For the same compound, the EC50 [4] was 440 nM and the IC50 [5] was 710 nM.
`C[C@]12CC[C@H]3[C@@H](CC[C@H]4[C@H]5CCC[C@]43CC[C@@H]5O)[C@@H]1CC[C@@H]2O` was tested, and the IC50 [1] was 4990 nM, the IC50 [2] was 322 nM and the EC50 [3] was 1300 nM. The EC50 [4] was 219 nM and the IC50 [5] was 68 nM.
With `C[C@]12CC[C@H]3[C@@H](CC=C4[C@H]5CC[C@]43CC[C@H]5O)[C@@H]1CC[C@@H]2O` the IC50 [1] was 8130 nM, the IC50 [2] was 854 nM and the EC50 [3] was 435 nM. For the same compound, the EC50 [4] was 198 nM and the IC50 [5] was 1120 nM.
Compound `C[C@]12CC[C@H]3[C@@H](CC=C4[C@H]5CC=C[C@]43CC[C@@H]5O)[C@@H]1CC[C@@H]2O` has an IC50 [1] of 2240 nM, an IC50 [2] of 157 nM and an EC50 [3] of 4890 nM. For the same compound, the EC50 [4] was 132 nM and the IC50 [5] was 85 nM.
For `C[C@]12CC[C@H]3[C@@H](CC=C4[C@@H]5C(=O)CC[C@@]43C[C@@H]5O)[C@@H]1CC[C@@H]2O`, the IC50 [1] was > 10000 nM, the IC50 [2] was > 10000 nM and the EC50 [3] was > 1000 nM. The EC50 [4] was > 1000 nM and the IC50 [5] was > 1000 nM.
For `C[C@]12CC[C@H]3[C@@H](CC4C5=CC(=O)CC[C@@]53C[C@H]4O)[C@@H]1CC[C@@H]2O`, the IC50 [1] was > 10000 nM, the IC50 [2] was > 10000 nM and the EC50 [3] was > 1000 nM. The EC50 [4] was > 1000 nM and the IC50 [5] was > 1000 nM.
For `C=C[C@]12CCC(=O)C=C1CC[C@H]1[C@@H]3CC[C@H](O)[C@@]3(C)CC[C@@H]12`, the IC50 [1] was > 10000 nM and the EC50 [3] was > 1000 nM.
For `C=CC[C@@H]1C2=CC[C@H]3[C@@H]4CC[C@H](O)[C@@]4(C)CC[C@@H]3[C@@]2(C=C)CC[C@@H]1O`, the IC50 [1] was > 10000 nM, the IC50 [2] was 3020 nM and the EC50 [3] was > 1000 nM. For the same compound, the EC50 [4] was > 1000 nM and the IC50 [5] was 15 nM.
